# Patent US11400081B2, “Compounds” (The University of Sheffield, priority 2017, dated 2022)
# Target: T1, AM2 receptor (CALCRL+RAMP3) (Homo sapiens, UniProt O60896+Q16602)
# T1 construct: host or cells: 1321N1
# Test: AM2 receptor inhibition, LANCE TR-FRET cAMP agonist-antagonist competition assay
# Format: cell-based
# Conditions: inhibition of AM induced cAMP activation; 1321N1 cells transfected with CALCRL+RAMP3; read-out: AM2 pIC50 (converted)
# Procedure: Compounds were assessed for their ability to inhibit ligand-induced elevations of cAMP, using the Perkin Elmer LANCE cAMP assay using commercially-available cells expressing a specific receptor of interest using the following general procedure:
# Compounds were prepared in dimethyl sulfoxide (DMSO—99.9% pure) (Sigma Aldrich, Cat #: D4540) added to powder stocks to produce a 20 mM solution (100% DMSO) that was sonicated at 37° C. for 10 minutes to fully dissolve the compounds. The 20 mM stocks were diluted further in DMSO to produce a 2 mM solution that was sonicated at 37° C. for 10 minutes. 2 mM stocks were dissolved in assay/stimulation buffer to produce a 400 μM solution that was sonicated at 37° C. for 10 minutes for all cAMP assays. All stocks were stored at −20° C. Then serial dilution (Dilution factor 10) was performed to achieve the desire experimental concentrations.
# Competition assays were performed according to the manufactures instructions using LANCE® TR-FRET cAMP assay kit (Perkin Elmer, Cat #: AD0264). Serial dilutions (3 μl/well) of the molecules were plated in a 384-well OptiPlate (Perkin Elmer, Cat #: 6007299) in duplicates. Appropriate controls (100% stimulation: Forskolin and 0% stimulation: Vehicle control) (6 μl/well) were included in each plate for data normalization. Following the compound addition, 6 μl of G-protein coupled receptor overexpressing cells/Alexa Fluor antibody solution (1:100 dilution) was added in each well at a desired density of 2500 cells/well. The overexpressing cell lines were purchased from DiscoveRx, Birmingham, UK. After spinning the plate at 1000 rpm for 1 minute and vortexing briefly, the cells were pre-incubated with the compounds for 30 minutes at room temperature (covered). Then 3 μl of the equivalent peptide ligand (EC50 dose) was added to all the wells except vehicle and forskolin controls. The plate were then spun down at 1000 rpm for 1 minute and once finished they were vortexed briefly and covered. Cells were stimulated in the presence of the ligands for 15 minutes at room temperature. After stimulation 12 μl of detection mix (Europium-Chelate streptavidin/biotinylated cAMP tracer solution) was added to all wells and incubated for 60 minutes at room temperature. The plate was then read on the Enspire multimode Plate reader (Perkin Elmer), at; 320/340 nm excitation and 615/665 nm emission was recorded.
# • 28 mL Hank's Balanced salt solution (+MgCl2, +CaCl2)—(Thermo Fisher Cat #:14170112) • 150 μl HEPES (1M)—(Thermo Fisher Cat #:15630080) • 400 μl Stabilizer (DTPA) Purified BSA (7.5%)—(Perkin Elmer, Cat #: CR84-100) • 60 μl IBMX (250 mM)—(Sigma Aldrich, Cat #: 15879) Specific cAMP/Agonist-Antagonist Competition Assays
# The ability of a compound to inhibit the AM induced cAMP activation in AM2 receptor-expressing cells (1321N1 cells transfected with CALCRL+RAMP3, sourced from DiscoverX catalogue number 95-0169C6) was assessed using the protocol above.
# T1 sequence (Q16602 23-461): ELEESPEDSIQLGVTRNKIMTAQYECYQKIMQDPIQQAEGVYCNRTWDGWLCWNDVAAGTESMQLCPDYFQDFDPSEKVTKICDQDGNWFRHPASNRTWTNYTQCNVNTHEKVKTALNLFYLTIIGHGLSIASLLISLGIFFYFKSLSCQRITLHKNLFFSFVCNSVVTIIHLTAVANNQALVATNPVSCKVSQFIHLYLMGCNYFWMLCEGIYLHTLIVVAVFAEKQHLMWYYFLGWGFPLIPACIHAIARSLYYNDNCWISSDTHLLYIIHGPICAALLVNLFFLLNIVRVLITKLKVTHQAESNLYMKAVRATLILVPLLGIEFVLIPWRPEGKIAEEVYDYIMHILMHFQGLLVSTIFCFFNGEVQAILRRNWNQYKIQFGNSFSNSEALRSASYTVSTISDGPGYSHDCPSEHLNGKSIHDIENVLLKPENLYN
# T1 sequence (O60896 24-148): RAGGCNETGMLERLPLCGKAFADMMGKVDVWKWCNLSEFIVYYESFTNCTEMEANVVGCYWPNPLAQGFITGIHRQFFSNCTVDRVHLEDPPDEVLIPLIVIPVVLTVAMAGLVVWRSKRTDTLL
row,SMILES,IC50 [nM]
1,"CNCc1ccccc1CN(CC(=O)Nc1ccc2c(c1)CC1(C2)C(=O)Nc2ncccc21)C(=O)C1CCN(C(=O)NC(C)C)CC1 (stereo not drawn) [Example 73, N1-isopropyl-N4-(2-((methylamino)methyl)benzyl)-N4-(2-oxo-2-((2′-oxo-1,1′,2′,3-tetrahydrospiro[indene-2,3′-pyrrolo[2,3-b]pyridin]-5-yl)amino)ethyl)piperidine-1,4-dicarboxamide 2,2,2-trifluoroacetate]",8.32
2,"O=C(CN(Cc1ccccc1CN1CCC1)C(=O)C1CCCC1)Nc1ccc2c(c1)CC1(C2)C(=O)Nc2ncccc21 (stereo not drawn) [Example 46, N-(2-(Azetidin-1-ylmethyl)benzyl)-N-(2-oxo-2-((2′-oxo-1,1′,2′,3-tetrahydrospiro[indene-2,3′-pyrrolo[2,3-b]pyridin]-5-yl)amino)ethyl)cyclopentanecarboxamide]",2.82
3,"CN(C)CCCNCc1ccccc1CN(CC(=O)Nc1ccc2c(c1)CC1(C2)C(=O)Nc2ncccc21)C(=O)C(C)(C)C (stereo not drawn) [Example 12, N-(2-(((3-(Dimethylamino)propyl)amino)methyl)benzyl)-N-(2-oxo-2-((2′-oxo-1,1′,2′,3-tetrahydrospiro[indene-2,3′-pyrrolo[2,3-b]pyridin]-5-yl)amino)ethyl)pivalamide]",186
4,"CC(C)(C)C(=O)N(CC(=O)Nc1ccc2c(c1)CC1(C2)C(=O)Nc2ncccc21)Cc1ccccc1CNCC1CC1 (stereo not drawn) [Example 8, N-(2-(((Cyclopropylmethyl)amino)methyl)benzyl)-N-(2-oxo-2-((2′-oxo-1,1′,2′,3-tetrahydrospiro[indene-2,3′-pyrrolo[2,3-b]pyridine]-5-yl)amino)ethyl)pivalamide]",166
5,"CC(C)(C)C(=O)N(CC(=O)Nc1ccc2c(c1)CC1(C2)C(=O)Nc2ncccc21)Cc1ccccc1CNCc1ncc[nH]1 (stereo not drawn) [Example 9, N-(2-((((1H-Imidazol-2-yl)methyl)amino)methyl)benzyl)-N-(2-oxo-2-((2′-oxo-1,1′,2′,3-tetrahydrospiro[indene-2,3′-pyrrolo[2,3-b]pyridine]-5-yl)amino)ethyl)pivalamide]",240
6,"CNCc1ccccc1CN(CC(=O)Nc1ccc2c(c1)CC1(C2)C(=O)Nc2ncccc21)C(=O)C12CC(N)(C1)C2 (stereo not drawn) [Example 77, 3-amino-N-[[2-(methylaminomethyl)phenyl]methyl]-N-[2-oxo-2-[(2-oxospiro[1H-pyrrolo[2,3-b]pyridine-3,2′-indane]-5′-yl)amino]ethyl]bicyclo[1.1.1]pentane-1-carboxamide bis(2,2,2-trifluoroacetate)]",44.7
7,"CNCc1ccccc1CN(CC(=O)Nc1ccc2c(c1)C[C@@]1(C2)C(=O)Nc2ncccc21)C(=O)C(C)(C)C(F)(F)F [Example 96, 3,3,3-trifluoro-2,2-dimethyl-N-[[2-(methylaminomethyl)phenyl]methyl]-N-[2-oxo-2-[[(3R)-2-oxospiro[1H-pyrrolo[2,3-b]pyridine-3,2′-indane]-5′-yl]amino]ethyl]propanamide 2,2,2-trifluoroacetate]",49
8,"CC(C)(C)C(=O)N(CC(=O)Nc1ccc2c(c1)CC1(C2)C(=O)Nc2ncccc21)Cc1ccccc1CNCCF (stereo not drawn) [Example 17, N-(2-(((2-Fluoroethyl)amino)methyl)benzyl)-N-(2-oxo-2-((2′-oxo-1,1′,2′,3-tetrahydrospiro[indene-2,3′-pyrrolo[2,3-b]pyridin]-5-yl)amino)ethyl)pivalamide]",12.3
9,"CNCc1ccccc1CN(CC(=O)Nc1ccc2c(c1)CC1(C2)C(=O)Nc2ncccc21)C(=O)C1CCN(C(=O)CN)CC1 (stereo not drawn) [Example 70, 1-(2-aminoacetyl)-N-(2-((methylamino)methyl)benzyl)-N-(2-oxo-2-((2′-oxo-1,1′,2′,3-tetrahydrospiro[indene-2,3′-pyrrolo[2,3-b]pyridin]-5-yl)amino)ethyl)piperidine-4-carboxamide bis(2,2,2-trifluoroacetate)]",44.7
